The values below come from patent US8871753B2, “Macrocyclic compounds and their use as kinase inhibitors” (Incyte Corporation, priority 2008, dated 2014).

Holding throughout (format): biochemical
In assay [1] the target is T1, human JAK1 (a.a. 837-1142) (Homo sapiens, UniProt P23458).
T1 construct: human JAK1 (a.a. 837-1142); His tag (N); made in house; host or cells: insect cells (baculovirus)
Put plainly: In vitro JAK kinase assay (HTRF, phosphorylation of a biotinylated peptide), JAK1. The note with it: read-out: JAK1 IC50. A digest of the protocol:
(§1)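 Phosphorylation of a biotinylated peptide by the JAK kinase domain, detected by HTRF with Eu-Py20 and SA-APC. ATP was 90 μM for JAK1, 30 μM for JAK2 and 3 μM for JAK3. Reactions ran 1 h at room temperature and were stopped with EDTA, followed by 40 min antibody binding.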
For orientation: In TR-FRET formats the signal depends on donor and acceptor labels being close together.

A further assay has as its target TYK2 (Homo sapiens, UniProt P29597). Put plainly: TYK2 kinase inhibition (Table A1).
Assay [2] addresses T2, Recombinant Human Anaplastic Lymphoma Kinase (Homo sapiens, UniProt Q9UM73).
T2 construct: purchased Invitrogen, Carlsbad, Calif
Put plainly: ALK HTRF kinase assay. In a few lines: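 Biotinylated peptide substrate, recombinant human ALK; detection via europium-chelate antibody to phosphotyrosine paired with streptavidin-APC. Potency expressed as IC50 from four-parameter curve fitting.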

The target in assay [3] is T3, human JAK2 (a.a. 828-1132) (Homo sapiens, UniProt O60674).
T3 construct: JAK2 (a.a. 828-1132); His tag (N); made in house; host or cells: insect cells (baculovirus)
Put plainly: In vitro JAK kinase assay (HTRF, phosphorylation of a biotinylated peptide), JAK2. In a few lines:
as §1

Assay [4] concerns the target T4, human JAK3 (a.a. 781-1124) (Homo sapiens, UniProt P52333).
T4 construct: JAK3 (a.a. 781-1124); His tag (N); made in house; host or cells: insect cells (baculovirus)
Put plainly: In vitro JAK kinase assay (HTRF, phosphorylation of a biotinylated peptide), JAK3. In a few lines: as §1

[5] abbreviates: compound at a concentration of 500 nM or 1 mM (not specified), cells shown as percentage.
The mark [6] stands for this setting: Table B1, cells without percent sign.
The mark [7] stands for this setting: method AA1 (90 μM ATP) or AA2 (1000 μM ATP), not stated per value.
Where [8] appears, read: compound at 500 nM or 1 mM, 90 μM ATP.
[9] abbreviates: method AA1 (30 μM ATP) or AA2 (1000 μM ATP), not stated per value.
Where [10] appears, read: method AA1 (3 μM ATP) or AA2 (1000 μM ATP), not stated per value.

As usually defined, the IC50 is the point on the concentration scale where inhibition reaches its midpoint.

Structures can show the parent of a compound that is named as a salt. Where two headings read alike, the source gives them in different places.

Chain of TYK2 (P29597 whole entry): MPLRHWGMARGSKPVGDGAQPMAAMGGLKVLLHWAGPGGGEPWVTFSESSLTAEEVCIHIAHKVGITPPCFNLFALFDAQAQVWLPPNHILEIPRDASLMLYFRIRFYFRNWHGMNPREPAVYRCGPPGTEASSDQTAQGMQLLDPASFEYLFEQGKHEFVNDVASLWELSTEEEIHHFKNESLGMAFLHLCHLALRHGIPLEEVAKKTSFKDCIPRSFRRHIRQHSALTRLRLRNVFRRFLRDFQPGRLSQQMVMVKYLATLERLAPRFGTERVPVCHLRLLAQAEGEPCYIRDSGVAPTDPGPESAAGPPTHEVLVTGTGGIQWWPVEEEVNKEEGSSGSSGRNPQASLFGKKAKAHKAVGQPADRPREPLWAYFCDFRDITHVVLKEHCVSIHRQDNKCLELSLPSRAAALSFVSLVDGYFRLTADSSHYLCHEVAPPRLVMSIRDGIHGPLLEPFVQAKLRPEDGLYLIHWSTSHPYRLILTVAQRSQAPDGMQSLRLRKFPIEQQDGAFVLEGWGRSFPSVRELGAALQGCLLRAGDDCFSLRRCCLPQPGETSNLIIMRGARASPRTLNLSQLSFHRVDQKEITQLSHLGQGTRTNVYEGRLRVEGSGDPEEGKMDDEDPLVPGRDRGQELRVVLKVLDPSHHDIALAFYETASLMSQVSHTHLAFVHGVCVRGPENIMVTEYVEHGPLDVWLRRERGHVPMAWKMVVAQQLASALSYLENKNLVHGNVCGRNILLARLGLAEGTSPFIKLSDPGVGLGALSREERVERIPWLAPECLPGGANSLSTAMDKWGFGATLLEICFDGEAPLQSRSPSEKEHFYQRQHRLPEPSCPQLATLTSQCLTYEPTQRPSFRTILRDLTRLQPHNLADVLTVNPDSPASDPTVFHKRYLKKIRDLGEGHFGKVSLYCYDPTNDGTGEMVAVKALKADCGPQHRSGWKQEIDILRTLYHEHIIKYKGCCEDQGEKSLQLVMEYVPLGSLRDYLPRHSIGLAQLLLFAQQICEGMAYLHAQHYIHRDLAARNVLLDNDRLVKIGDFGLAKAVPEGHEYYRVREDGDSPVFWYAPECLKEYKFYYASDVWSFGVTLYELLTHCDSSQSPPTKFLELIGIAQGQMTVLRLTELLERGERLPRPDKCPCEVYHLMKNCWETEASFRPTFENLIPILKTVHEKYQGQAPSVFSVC
T3 sequence (O60674 828-1132): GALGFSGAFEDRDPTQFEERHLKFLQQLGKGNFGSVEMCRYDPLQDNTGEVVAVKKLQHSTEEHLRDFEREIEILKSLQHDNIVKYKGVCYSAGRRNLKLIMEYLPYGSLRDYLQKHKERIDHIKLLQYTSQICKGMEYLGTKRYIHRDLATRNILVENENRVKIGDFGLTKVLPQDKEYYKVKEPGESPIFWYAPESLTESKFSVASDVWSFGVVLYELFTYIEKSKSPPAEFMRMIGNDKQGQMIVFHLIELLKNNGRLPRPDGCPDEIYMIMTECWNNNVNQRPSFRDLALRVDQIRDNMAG
T2 sequence (Q9UM73 19-1620): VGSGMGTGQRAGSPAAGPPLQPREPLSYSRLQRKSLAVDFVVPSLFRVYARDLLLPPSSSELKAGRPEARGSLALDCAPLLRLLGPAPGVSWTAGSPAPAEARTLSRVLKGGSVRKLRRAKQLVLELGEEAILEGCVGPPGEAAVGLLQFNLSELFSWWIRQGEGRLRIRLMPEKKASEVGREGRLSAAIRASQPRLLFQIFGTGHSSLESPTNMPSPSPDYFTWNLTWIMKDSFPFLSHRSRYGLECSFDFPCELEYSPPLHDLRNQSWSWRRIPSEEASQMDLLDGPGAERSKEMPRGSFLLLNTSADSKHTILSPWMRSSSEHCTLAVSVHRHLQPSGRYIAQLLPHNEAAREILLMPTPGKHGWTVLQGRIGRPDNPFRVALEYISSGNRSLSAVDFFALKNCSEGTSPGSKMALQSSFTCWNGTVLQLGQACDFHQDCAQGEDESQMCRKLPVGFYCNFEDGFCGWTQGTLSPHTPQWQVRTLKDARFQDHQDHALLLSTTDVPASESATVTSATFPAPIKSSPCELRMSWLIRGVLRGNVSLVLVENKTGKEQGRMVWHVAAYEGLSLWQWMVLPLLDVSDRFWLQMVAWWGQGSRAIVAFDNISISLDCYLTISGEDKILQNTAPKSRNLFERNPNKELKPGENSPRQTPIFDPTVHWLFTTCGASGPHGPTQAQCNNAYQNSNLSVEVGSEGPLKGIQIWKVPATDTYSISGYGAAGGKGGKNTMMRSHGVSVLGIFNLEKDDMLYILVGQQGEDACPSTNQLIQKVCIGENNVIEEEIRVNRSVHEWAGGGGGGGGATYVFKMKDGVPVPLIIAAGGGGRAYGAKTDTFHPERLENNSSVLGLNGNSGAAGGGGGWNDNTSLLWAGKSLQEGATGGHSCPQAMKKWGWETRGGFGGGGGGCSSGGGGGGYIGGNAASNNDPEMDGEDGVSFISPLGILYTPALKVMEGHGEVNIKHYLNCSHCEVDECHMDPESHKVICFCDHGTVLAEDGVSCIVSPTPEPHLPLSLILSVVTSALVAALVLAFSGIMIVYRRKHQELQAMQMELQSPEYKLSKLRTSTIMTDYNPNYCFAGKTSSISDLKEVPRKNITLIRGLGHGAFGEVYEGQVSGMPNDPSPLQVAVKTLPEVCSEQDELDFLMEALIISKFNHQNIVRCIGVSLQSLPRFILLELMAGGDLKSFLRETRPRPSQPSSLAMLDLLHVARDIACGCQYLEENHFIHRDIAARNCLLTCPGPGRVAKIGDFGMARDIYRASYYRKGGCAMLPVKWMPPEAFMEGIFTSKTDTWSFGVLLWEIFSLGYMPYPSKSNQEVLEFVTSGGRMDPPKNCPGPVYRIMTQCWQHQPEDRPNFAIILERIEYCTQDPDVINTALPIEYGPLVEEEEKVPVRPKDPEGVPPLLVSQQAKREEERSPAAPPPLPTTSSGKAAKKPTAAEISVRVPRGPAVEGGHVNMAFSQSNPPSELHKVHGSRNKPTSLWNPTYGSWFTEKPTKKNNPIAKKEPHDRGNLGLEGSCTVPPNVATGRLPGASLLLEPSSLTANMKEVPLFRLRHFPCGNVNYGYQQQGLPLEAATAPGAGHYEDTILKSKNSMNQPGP
T4 sequence (P52333 781-1124): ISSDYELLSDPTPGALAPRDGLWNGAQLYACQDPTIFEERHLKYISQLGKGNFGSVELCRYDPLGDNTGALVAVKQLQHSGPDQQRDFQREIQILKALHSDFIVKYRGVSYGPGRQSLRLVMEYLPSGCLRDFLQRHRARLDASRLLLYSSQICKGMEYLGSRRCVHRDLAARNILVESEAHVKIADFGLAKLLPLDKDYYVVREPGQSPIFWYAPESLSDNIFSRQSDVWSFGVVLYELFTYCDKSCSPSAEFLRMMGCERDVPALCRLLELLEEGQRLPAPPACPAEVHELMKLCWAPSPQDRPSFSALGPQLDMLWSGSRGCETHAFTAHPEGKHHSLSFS
T1 sequence (P23458 849-1154): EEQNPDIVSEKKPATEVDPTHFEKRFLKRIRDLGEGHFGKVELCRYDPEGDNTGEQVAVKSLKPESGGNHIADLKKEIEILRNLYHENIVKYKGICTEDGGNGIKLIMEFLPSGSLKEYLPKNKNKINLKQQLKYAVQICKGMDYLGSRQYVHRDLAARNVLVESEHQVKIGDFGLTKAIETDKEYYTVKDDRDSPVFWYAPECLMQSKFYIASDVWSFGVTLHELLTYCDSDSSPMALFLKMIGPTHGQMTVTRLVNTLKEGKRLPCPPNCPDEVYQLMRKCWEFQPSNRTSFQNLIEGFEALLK

With `O=C(NCCN1CCCCC1)Nc1ccc2cc1CCc1cccc(c1)Nc1ncc(Cl)c(n1)N2` [Example B258, N-[6-Chloro-2,4,8,22-tetraazatetracyclo[14.3.1.1(3,7).1(9,13)]docosa-1(20),3(22),4,6,9(21),10,12,16,18-nonaen-12-yl]-N′-(2-piperidin-1-ylethyl)urea bis(trifluoroacetate)], the IC50 in assay [1] (Table B1) came out at 4.9 nM; against TYK2 (Table B1), 24 nM; in assay [3] (Table B1), 10 nM; in assay [4] (Table B1) it was 83 nM. For the same compound, the “ALK % of inhibition at a concentration of 500 nM or 1 mM” value (“ALK % of inhibition” below) in assay [2] (setting [5]) is 29%.
Consider `O=C(Nc1ccc(N2CCOCC2)cc1)c1cc2cc(c1)Nc1nc(ncc1Cl)Nc1cccc(c1)CC2` [Example B9, 6-Chloro-N-(4-morpholin-4-ylphenyl)-2,4,8,22-tetraazatetracyclo[14.3.1.1(3,7).1(9,13)]docosa-1(20),3(22),4,6,9(21),10,12,16,18-nonaene-11-carboxamide trifluoroacetate], for which the IC50 is 263 nM in assay [1] (Table B1); 683 nM at TYK2 (Table B1); greater than 1000 nM in assay [2] (setting [6]); 130 nM in assay [3] (Table B1); greater than 1000 nM in assay [4] (Table B1).
In the case of `CC(C)NC(=O)N1CCC(CC(=O)Nc2ccc3cc2CCc2cccc(c2)Nc2ncc(Cl)c(n2)N3)CC1` [Example A84, 4-(2-{[6-Chloro-2,4,8,22-tetraazatetracyclo[14.3.1.1(3,7).1(9,13)]docosa-1(20),3(22),4,6,9(21),10,12,16,18-nonaen-12-yl]amino}-2-oxoethyl)-N-isopropylpiperidine-1-carboxamide trifluoroacetate], the half-maximal inhibitory concentration (IC50) in assay [1] (setting [7]) worked out at 24 nM; against TYK2, 16 nM; in assay [3] (setting [9]) it was 9 nM; in assay [4] (setting [10]), 49 nM. The “ALK % of inhibition” value in assay [2] (setting [8]) turned out to be 31%.
For the compound `NC(=O)N1CCN(c2cc(-c3cc4cc(c3)Nc3ncc(Cl)c(n3)Nc3cccc(c3)OCC4)ccn2)CC1` [Example D39, 4-{4-[6-Chloro-14-oxa-2,4,8,23-tetraazatetracyclo[15.3.1.1(3,7).1(9,13)]tricosa-1(21),3(23),4,6,9(22),10,12,17,19-nonaen-19-yl]pyridin-2-yl}piperazine-1-carboxamide bis(trifluoroacetate)], the IC50 stood at 0.5 nM in assay [1] (Table D1); 1.8 nM at TYK2 (Table D1); 91 nM in assay [2] (Table D1, 90 μM ATP); 0.5 nM in assay [3] (Table D1); 6.4 nM in assay [4] (Table D1).
`CN(Cc1ccc2cc1CCc1cncc(c1)Nc1ncc(Cl)c(n1)N2)C(=O)C1CCN(C(=O)Nc2ccccc2)CC1` [Example B337, N(4)-{[6-chloro-2,4,8,18,22-pentaazatetracyclo[14.3.1.1(3,7).1(9,13)]docosa-1(20),3(22),4,6,9(21),10,12,16,18-nonaen-12-yl]methyl}-N(4)-methyl-N(1)-phenylpiperidine-1,4-dicarboxamide bis(trifluoroacetate)]: the IC50 in assay [1] (Table B1) is 41 nM; against TYK2 (Table B1), greater than 200 nM; in assay [3] (Table B1) it was 171 nM; in assay [4] (Table B1), greater than 200 nM. Besides, the “ALK % of inhibition” value in assay [2] (percentage inhibition of the example compound at a concentration of 500 nM or 1 mM (not specified which)) came to 21%.
In the case of `O=C(CC1CCN(C(=O)c2ncco2)CC1)Nc1ccc2cc1CCc1cncc(c1)Nc1ncc(Cl)c(n1)N2` [Example A139, N-[6-Chloro-2,4,8,18,22-pentaazatetracyclo[14.3.1.1(3,7).1(9,13)]docosa-1(20),3(22),4,6,9(21),10,12,16,18-nonaen-12-yl]-2-[1-(1,3-oxazol-2-ylcarbonyl)piperidin-4-yl]acetamide bis(trifluoroacetate)], the IC50 worked out at 1.1 nM in assay [1] (setting [7]), 3.4 nM against TYK2, 7.6 nM in assay [3] (setting [9]) and 178 nM in assay [4] (setting [10]). Also, the “ALK % of inhibition” value in assay [2] (setting [8]) turned out to be 27%.
`O=C(Nc1ccccc1)Nc1ccc2cc1CCc1cccc(c1)Nc1ncc(Cl)c(n1)N2` [Example B83, N-[6-Chloro-2,4,8,22-tetraazatetracyclo[14.3.1.1(3,7).1(9,13)]docosa-1(20), 3(22),4,6,9(21),10,12,16,18-nonaen-12-yl]-N′-phenylurea trifluoroacetate]: the IC50 in assay [1] (Table B1) stood at 0.56 nM; against TYK2 (Table B1), 5.2 nM; in assay [2] (setting [6]), 780 nM; in assay [3] (Table B1) it was 1.7 nM; in assay [4] (Table B1) it was 27 nM.
Take `Cc1oncc1S(=O)(=O)N1CCC(CC(=O)Nc2ccc3cc2CCc2cncc(c2)Nc2ncc(Cl)c(n2)N3)CC1` [Example A200, N-[6-Chloro-2,4,8,18,22-pentaazatetracyclo[14.3.1.1(3,7).1(9,13)]docosa-1(20),3(22),4,6,9(21),10,12,16,18-nonaen-12-yl]-2-{1-[(5-methylisoxazol-4-yl)sulfonyl]piperidin-4-yl}acetamide bis(trifluoroacetate)]: the concentration for half-maximal inhibition (IC50) in assay [1] (setting [7]) is 8.5 nM; against TYK2, greater than 200 nM; in assay [3] (setting [9]) it was 101 nM; in assay [4] (setting [10]), greater than 200 nM. In addition, the “ALK % of inhibition” value in assay [2] (setting [8]) was determined as 25%.
Regarding `Clc1cnc2nc1Nc1ccc(CN[C@@H]3CCNC3)c(c1)CCc1cccc(c1)N2` [Example B222, (3R)—N-{[6-Chloro-2,4,8,22-tetraazatetracyclo[14.3.1.1(3,7).1(9,13)]docosa-1(20),3(22),4,6,9(21),10,12,16,18-nonaen-12-yl]methyl}pyrrolidin-3-amine tris(trifluoroacetate)], the half-inhibitory concentration (IC50) was found to be 20 nM in assay [1] (Table B1), 54 nM against TYK2 (Table B1), 14 nM in assay [3] (Table B1) and 40 nM in assay [4] (Table B1). Also, the “ALK % of inhibition” value in assay [2] (setting [5]) was 34%.
Turning to `O=C(CC1CCN(C(=O)NCc2ccccc2)CC1)Nc1ccc2cc1CCc1cncc(c1)Nc1ncc(Cl)c(n1)N2` [Example A155, N-Benzyl-4-(2-{[6-chloro-2,4,8,18,22-pentaazatetracyclo[14.3.1.1(3,7).1(9,13)]docosa-1(20),3(22),4,6,9(21),10,12,16,18-nonaen-12-yl]amino}-2-oxoethyl)piperidine-1-carboxamide bis(trifluoroacetate)], the half-maximal inhibitory concentration (IC50) is 2.4 nM in assay [1] (setting [7]), 3.8 nM against TYK2, 4.2 nM in assay [3] (setting [9]) and greater than 100 nM in assay [4] (setting [10]). For the same compound, in assay [2] (setting [8]), the “ALK % of inhibition” value came out at 47%.
In the case of `N#Cc1cccc(C(=O)Nc2ccc3cc2CCc2cccc(c2)Nc2ncc(Cl)c(n2)N3)c1` [Example B65, N-[6-Chloro-2,4,8,22-tetraazatetracyclo[14.3.1.1(3,7).1(9,13)]docosa-1(20), 3(22),4,6,9(21),10,12,16,18-nonaen-12-yl]-3-cyanobenzamide trifluoroacetate], the IC50 in assay [1] (Table B1) was 3.4 nM; against TYK2 (Table B1), 5.9 nM; in assay [2] (setting [6]), 290 nM; in assay [3] (Table B1) it was 1.8 nM; in assay [4] (Table B1), 8.8 nM.
In the case of `Clc1cnc2nc1Nc1cccc(c1)OCCOc1cccc(c1)N2` [Example D10, 6-Chloro-14,17-dioxa-2,4,8,24-tetraazatetracyclo[16.3.1.1(3,7).1(9,13)]tetracosa-1(22),3(24),4,6,9(23),10,12,18,20-nonaene trifluoroacetate], the IC50 in assay [1] (Table D1) amounted to 8.2 nM; against TYK2 (Table D1), 8.1 nM; in assay [2] (Table D1, 90 μM ATP), 791 nM; in assay [3] (Table D1), 2.4 nM; in assay [4] (Table D1), 10 nM.
On to `O=C(Nc1ccc2cc1CCc1cccc(c1)Nc1ncc(Cl)c(n1)N2)c1ccc(Cl)cc1` [Example B43, 4-Chloro-N-[6-chloro-2,4,8,22-tetraazatetracyclo[14.3.1.1(3,7).1(9,13)]docosa-1(20),3(22),4,6,9(21),10,12,16,18-nonaen-12-yl]benzamide hydrochloride], for which the half-inhibitory concentration (IC50) in assay [1] (Table B1) is 0.79 nM; on TYK2 (Table B1), 2.9 nM; in assay [2] (setting [6]), 170 nM; in assay [3] (Table B1), 1.1 nM; in assay [4] (Table B1) it was 6.7 nM.
Turning to `O=C(CC1CCN(C(=O)Nc2ccccc2F)CC1)Nc1ccc2cc1CCc1cncc(c1)Nc1ncc(Cl)c(n1)N2` [Example A146, 4-(2-{[6-Chloro-2,4,8,18,22-pentaazatetracyclo[14.3.1.1(3,7).1(9,13)]docosa-1(20),3(22),4,6,9(21),10,12,16,18-nonaen-12-yl]amino}-2-oxoethyl)-N-(2-fluorophenyl)piperidine-1-carboxamide bis(trifluoroacetate)], the IC50 was 0.9 nM in assay [1] (setting [7]), 7.1 nM against TYK2, 3.6 nM in assay [3] (setting [9]) and greater than 100 nM in assay [4] (setting [10]). Also, the “ALK % of inhibition” value in assay [2] (setting [8]) came to 34%.
